The values below come from patent publication US20230382891A1, “GLUTAMINYL-PEPTIDE CYCLOTRANSFERASE LIKE (QPCTL) PROTEIN INHIBITORS AND USES THEREOF” (Blacksmith Medicines, Inc., priority 2020, published 2023).

By IC50 is commonly meant the point on the concentration scale where inhibition reaches its midpoint. A high value points to lower potency.

For this experiment, the target named is Glutaminyl-peptide cyclotransferase like (QPCTL) protein (Homo sapiens, UniProt Q9NXS2). Description: Glutaminyl-peptide cyclotransferase like (QPCTL) protein inhibition assay (Gln-AMC substrate, pGAPase coupled). Type of experiment: biochemical. The following applies: 50 mM MES pH 7.0, 10 μM ZnCl2, 0.2 U/mL pGAPase, Gln-AMC at its Km, 30° C. As for the experimental part: Example B-1: Glutaminyl-Peptide Cyclotransferase Like (OPCTL) Protein Inhibition Assay
Sequence of Glutaminyl-peptide cyclotransferase like (QPCTL) protein (Q9NXS2 whole entry, species assumed): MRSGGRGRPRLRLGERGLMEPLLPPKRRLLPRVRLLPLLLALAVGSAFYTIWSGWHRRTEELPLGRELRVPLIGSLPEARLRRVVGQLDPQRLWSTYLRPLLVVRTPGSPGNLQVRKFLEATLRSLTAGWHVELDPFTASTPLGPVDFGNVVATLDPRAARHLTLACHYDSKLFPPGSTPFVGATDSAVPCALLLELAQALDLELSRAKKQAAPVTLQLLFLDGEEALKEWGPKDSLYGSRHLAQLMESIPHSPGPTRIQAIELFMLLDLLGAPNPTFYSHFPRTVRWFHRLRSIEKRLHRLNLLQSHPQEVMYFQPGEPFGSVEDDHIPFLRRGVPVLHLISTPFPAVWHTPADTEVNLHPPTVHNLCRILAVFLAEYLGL
Glutaminyl-peptide cyclotransferase like (QPCTL) protein activity was determined using L-glutamine-7-amido-4-methylcoumarin (Gln-AMC, Santa Cruz Biotechnology) as a substrate. A second enzyme, pyroglutamyl aminopeptidase (pGAPase, Qiagen), was included in the assay to release the AMC fluorophore following cyclization; appropriate controls were run to ensure that inhibitors were not inhibiting the auxiliary enzyme. Inhibitors were added at various concentrations to buffer (final concentrations: 50 mM MES pH 7.0, 10 μM ZnCl2, 0.2 U/mL pGAPase, Gln-AMC at its Km) and the reaction initiated by the addition of QPCTL. Reactions became linear after a 10-minute equilibration period at 30° C. (to accumulate pGlu-AMC intermediate), and were monitored for an additional 10 minutes.
Table A provides QPCTL inhibitory activity of illustrative compounds, where A means IC50 is <1 μM; B means IC50 is between 1 to 10 μM; C means IC50 is between 10 to 50 PM; D means IC50 is >50 PM.
As for “1-(1-(6′-chloro-[3,3′-bipyridin]-2-yl)piperidin-4-yl)-1H-1,2,3-triazol-4-amine [Compound 3]”, the IC50 was under 1000 nM.
The compound `Nc1nnc(C2CCN(c3ncccc3-c3ccc(F)nc3)CC2)[nH]1` [Compound 1, 5-(1-(6′-fluoro-[3,3′-bipyridin]-2-yl)piperidin-4-yl)-4H-1,2,4-triazol-3-amine] came in with an IC50 of under 1000 nM.
For `Nc1nnc(C2CCN(c3ncccc3-c3ccc(F)nc3)CC2)o1` [Compound 2, 5-(1-(6′-fluoro-[3,3′-bipyridin]-2-yl)piperidin-4-yl)-1,3,4-oxadiazol-2-amine], the IC50 is under 1000 nM.
The compound `Cc1ccc(-c2ccc(F)nc2)c(N2CCC(c3nnc(N)n3C)CC2)n1` [Compound 4, 5-(1-(6′-fluoro-6-methyl-[3,3′-bipyridin]-2-yl)piperidin-4-yl)-4-methyl-4H-1,2,4-triazol-3-amine] had an IC50 of under 1000 nM.
`Cn1c(N)nnc1C1CCN(c2nc(F)ccc2-c2ccc(F)nc2)CC1` [Compound 5, 5-(1-(6,6′-difluoro-[3,3′-bipyridin]-2-yl)piperidin-4-yl)-4-methyl-4H-1,2,4-triazol-3-amine] displayed an IC50 of under 1000 nM.
`Cn1c(N)nnc1C1CCN(c2ncccc2-c2ccc(F)nc2)CC1` [Compound 6, 5-(1-(6′-fluoro-[3,3′-bipyridin]-2-yl)piperidin-4-yl)-4-methyl-4H-1,2,4-triazol-3-amine] yielded an IC50 of under 1000 nM.
The same measure, in the same setting: the result for `CNc1nnc(C2CCN(c3ncccc3-c3ccc(F)nc3)CC2)[nH]1` [Compound 7, 5-(1-(6′-fluoro-[3,3′-bipyridin]-2-yl)piperidin-4-yl)-N-methyl-4H-1,2,4-triazol-3-amine] reads under 1000 nM; that for `Cc1c(N)nnn1C1CCN(c2ncccc2-c2ccc(F)nc2)CC1` [Compound 10, 1-(1-(6′-fluoro-[3,3′-bipyridin]-2-yl)piperidin-4-yl)-5-methyl-1H-1,2,3-triazol-4-amine], under 1000 nM.
On to `Fc1ccc(-c2cccnc2N2CC=C(c3cccn4cnnc34)CC2)cc1F` [Compound 11, 8-(3′-(3,4-difluorophenyl)-3,6-dihydro-2H-[1,2′-bipyridin]-4-yl)-[1,2,4]triazolo[4,3-a]pyridine], for which the “QPCTL IC50” value is “C (C means IC50 is between 10 to 50 PM)”.
`N#Cc1ccc(-c2cccnc2N2CC=C(c3cccn4cnnc34)CC2)cn1` [Compound 12, 4-([1,2,4]triazolo[4,3-a]pyridin-8-yl)-3,6-dihydro-2H-[1,2′:3′,3″-terpyridine]-6″-carbonitrile] displayed an IC50 of 1000 to 10000 nM.
`Nc1ccc(-c2cccnc2N2CC=C(c3cccn4cnnc34)CC2)cn1` [Compound 13, 4-([1,2,4]triazolo[4,3-a]pyridin-8-yl)-3,6-dihydro-2H-[1,2′:3′,3″-terpyridin]-6″-amine] returned an IC50 of 1000 to 10000 nM.
In the case of `COc1ccc(-c2cccnc2N2CC=C(c3cccn4cnnc34)CC2)cn1` [Compound 14, 8-(6″-methoxy-3,6-dihydro-2H-[1,2′:3′,3″-terpyridin]-4-yl)-[1,2,4]triazolo[4,3-a]pyridine], the IC50 lay within 1000 to 10000 nM.
`Nc1nnc2c(C3=CCN(c4ncccc4-c4ccc(F)nc4)CC3)cccn12` [Compound 15, 8-(6″-fluoro-3,6-dihydro-2H-[1,2′:3′,3″-terpyridin]-4-yl)-[1,2,4]triazolo[4,3-a]pyridin-3-amine] gave an IC50 of under 1000 nM.
In the case of `C1=C(c2cccn3cnnc23)CCN(c2ncccc2-c2cncnc2)C1` [Compound 16, 8-(3′-(pyrimidin-5-yl)-3,6-dihydro-2H-[1,2′-bipyridin]-4-yl)-[1,2,4]triazolo[4,3-a]pyridine], the “QPCTL IC50” value is given as “C (C means IC50 is between 10 to 50 PM)”.
`Nc1nnc2c(C3CCN(c4ncccc4-c4ccc(F)nc4)CC3)cccn12` [Compound 17, 8-(1-(6′-fluoro-[3,3′-bipyridin]-2-yl)piperidin-4-yl)-[1,2,4]triazolo[4,3-a]pyridin-3-amine] returned an IC50 of under 1000 nM.
The same measure, in the same setting: the value for `Fc1ccc(-c2cccnc2N2CC=C(c3cccn4cnnc34)CC2)cn1` [Compound 18, 8-(6″-fluoro-3,6-dihydro-2H-[1,2′:3′,3″-terpyridin]-4-yl)-[1,2,4]triazolo[4,3-a]pyridine] was 1000 to 10000 nM; that for `COCCOc1ccc(-c2cccnc2N2CC=C(c3cccn4cnnc34)CC2)cn1` [Compound 19, 8-(6″-(2-methoxyethoxy)-3,6-dihydro-2H-[1,2′:3′,3″-terpyridin]-4-yl)-[1,2,4]triazolo[4,3-a]pyridine] was 1000 to 10000 nM; that for `Fc1ccc(-c2cccnc2N2CC=C(c3cccn4cncc34)CC2)cn1` [Compound 20, 8-(6″-fluoro-3,6-dihydro-2H-[1,2′:3′,3″-terpyridin]-4-yl)imidazo[1,5-a]pyridine] was 1000 to 10000 nM.
On to `Fc1ccc(CN2CC=C(c3cccn4cnnc34)CC2)cn1` [Compound 21, 8-(1-((6-fluoropyridin-3-yl)methyl)-1,2,3,6-tetrahydropyridin-4-yl)-[1,2,4]triazolo[4,3-a]pyridine], for which the “QPCTL IC50” value was “D (D means IC50 is >50 PM)”.
For `C1=C(c2cccn3cnnc23)CCN(c2ccccn2)C1` [Compound 22, 8-(3,6-dihydro-2H-[1,2′-bipyridin]-4-yl)-[1,2,4]triazolo[4,3-a]pyridine], the “QPCTL IC50” value is “C (C means IC50 is between 10 to 50 PM)”.
Take `COc1ccc(C2=CCCN(CC#Cc3cccn4cnnc34)C2)cc1OC` [Compound 23, 8-(3-(5-(3,4-dimethoxyphenyl)-3,6-dihydropyridin-1(2H)-yl)prop-1-yn-1-yl)-[1,2,4]triazolo[4,3-a]pyridine]: the “QPCTL IC50” value is on record as “C (C means IC50 is between 10 to 50 PM)”.
Turning to `C1=C(c2cccn3cncc23)CCN(c2ccccn2)C1` [Compound 24, 8-(3,6-dihydro-2H-[1,2′-bipyridin]-4-yl)imidazo[1,5-a]pyridine], the IC50 fell in the range of 1000 to 10000 nM.
With `COc1ccc(CN2CCC=C(c3cccn4cnnc34)C2)cc1OC` [Compound 25, 8-(1-(3,4-dimethoxybenzyl)-1,2,5,6-tetrahydropyridin-3-yl)-[1,2,4]triazolo[4,3-a]pyridine], the “QPCTL IC50” value was “D (D means IC50 is >50 PM)”.
Take `OCCn1cc(C2CN(c3ccccn3)CC=C2c2cccn3cnnc23)cn1` (stereo not shown) [Compound 26, 2-(4-(4-([1,2,4]triazolo[4,3-a]pyridin-8-yl)-3,6-dihydro-2H-[1,2′-bipyridin]-3-yl)-1H-pyrazol-1-yl)ethan-1-ol]: the IC50 fell in the range of 1000 to 10000 nM.
Consider `c1ccc(N2CCC(C3CCCn4cnnc43)CC2)nc1` (stereo not shown) [Compound 27, 8-(1-(pyridin-2-yl)piperidin-4-yl)-5,6,7,8-tetrahydro-[1,2,4]triazolo[4,3-a]pyridine], for which the “QPCTL IC50” value was “C (C means IC50 is between 10 to 50 PM)”.
